According to patent publication US20230085307A1, “PYRIDAZINONE COMPOUND AND HERBICIDE” (NISSAN CHEMICAL CORPORATION, priority 2019, published 2023):

Legend:
blackgrass [1] = assay: Test Example 5: herbicidal effect by foliage application, plastic box (Table 20, symbol J); assay type: in vivo, blackgrass (Alopecurus myosuroides); conditions: foliage application
Procedure, shortened: (§1)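 Plants sown in sterilized diluvial soil and grown 14 days in a greenhouse at 25° C to 30° C, then sprayed on the foliage with the compound's emulsion diluted in water to a predetermined herbicide amount. Injury to weeds and crops scored three weeks after application on a visual rating scale.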

barnyard grass [2] = assay: Test Example 5: herbicidal effect by foliage application, plastic box (Table 20, symbol H); assay type: in vivo, barnyard grass (Echinochloa crus-galli); conditions: foliage application
Procedure, shortened: as §1

Italian ryegrass = assay: Test Example 5: herbicidal effect by foliage application, plastic box (Table 20, symbol K); assay type: in vivo, Italian ryegrass (Lolium multiflorum); conditions: foliage application
Procedure, shortened: as §1

persian speedwell = assay: Test Example 5: herbicidal effect by foliage application, plastic box (Table 20, symbol R); assay type: in vivo, Persian speedwell (Veronica persica); conditions: foliage application
Procedure, shortened: as §1

chickweed = assay: Test Example 4: herbicidal effect by soil treatment (Table 19, symbol P); assay type: in vivo, common chickweed (Stellaria media)
Procedure, shortened: (§2)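 Seeds were sown in sterilized diluvial soil and covered with about 1.5 cm of soil. An emulsion formulation diluted with water to a predetermined herbicide amount was sprayed evenly onto the soil surface. Plants grew in a greenhouse at 25° C. to 30° C., and the effect was scored three weeks after application using criteria from an earlier test.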

lambsquarters = assay: Test Example 4: herbicidal effect by soil treatment (Table 19, symbol O); assay type: in vivo, lambsquarters (Chenopodium album)
Procedure, shortened: as §2

Chinese sprangletop = assay: Test Example 3: herbicidal effect by foliage application, Wagner pot (Table 18, symbol D); assay type: in vivo, chinese sprangletop (Leptochloa chinensis)
Procedure, shortened: (§3)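 Plants were sown in alluvial soil held under 0.1–0.5 cm standing water and grown 14 days in a greenhouse at 25–30 °C. An emulsifiable formulation, water-diluted to the set dose, was then sprayed onto the foliage, and effects were scored three weeks later using previously defined criteria.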

wild oat = assay: Test Example 5: herbicidal effect by foliage application, plastic box (Table 20, symbol I); assay type: in vivo, wild oat (Avena fatua); conditions: foliage application
Procedure, shortened: as §1

southern crabgrass = assay: Test Example 4: herbicidal effect by soil treatment (Table 19, symbol F); assay type: in vivo, southern crabgrass (Digitaria ciliaris)
Procedure, shortened: as §2

blackgrass [3] = assay: Test Example 4: herbicidal effect by soil treatment (Table 19, symbol J); assay type: in vivo, blackgrass (Alopecurus myosuroides); conditions: AAH 320 g/ha
Procedure, shortened: as §2

redroot pigweed [4] = assay: Test Example 4: herbicidal effect by soil treatment (Table 19, symbol N); assay type: in vivo, redroot pigweed (Amaranthus retroflexus)
Procedure, shortened: as §2

velvetleaf = assay: Test Example 5: herbicidal effect by foliage application, plastic box (Table 20, symbol M); assay type: in vivo, velvetleaf (Abutilon theophrasti); conditions: foliage application
Procedure, shortened: as §1

late watergrass = assay: Test Example 2: herbicidal activity, application during weed generation under submerged conditions (Table 17, symbol A); assay type: in vivo, late watergrass (Echinochloa oryzicola); conditions: AAH 320 g/ha; application during weed generation, submerged conditions
Procedure, shortened: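 Mixed weed seedlings in alluvial soil under a 4 cm water layer, greenhouse-grown at 25–30° C. Compound given as a diluted emulsion into the floodwater at the 1–2 leaf stage; response graded after three weeks.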

barnyard grass [5] = assay: Test Example 3: herbicidal effect by foliage application, Wagner pot (Table 18, symbol H); assay type: in vivo, barnyard grass (Echinochloa crus-galli)
Procedure, shortened: as §3

redroot pigweed [6] = assay: Test Example 5: herbicidal effect by foliage application, plastic box (Table 20, symbol N); assay type: in vivo, redroot pigweed (Amaranthus retroflexus); conditions: foliage application, AAH 320 g/ha, evaluated three weeks after application
Procedure, shortened: as §1

barnyard grass [7] = assay: Test Example 4: herbicidal effect by soil treatment (Table 19, symbol H); assay type: in vivo, barnyard grass (Echinochloa crus-galli); conditions: amount of applied herbicide 320 g/ha
Procedure, shortened: as §2

[8] = 320 g/ha, 3 weeks after application
[9] = AAH 320 g/ha, evaluated three weeks after application
[10] = amount of applied herbicide 320 g/ha

In the case of C#CC(C)Oc1ccc(-c2sc3ccccc3c2-c2c(O)c(C)nn(C)c2=O)cc1 (racemic) [1-217], the “effect on blackgrass (J)” value (blackgrass [1]; [8]) is reported as 4 (Herbicidal rate of 70% or more and less than 90%), the “effect on barnyard grass (H)” value (barnyard grass [2]; [8]) is reported as 5 (Herbicidal rate of 90% or more (almost completely withered)) and the “effect on Italian ryegrass (K)” value (Italian ryegrass; [8]) is reported as 5 (Herbicidal rate of 90% or more (almost completely withered)). For the same molecule, the “effect on persian speedwell (R)” value (persian speedwell; [8]) was 5 (Herbicidal rate of 90% or more (almost completely withered)), the “P: chickweed, herbicidal effect rating” value (chickweed; AAH 320 g/ha) was 5 (Herbicidal rate of 90% or more (almost completely withered)) and the “O: lambsquarters, herbicidal effect rating” value (lambsquarters; AAH 320 g/ha) was 2 (Herbicidal rate of 20% or more and less than 40%). The “herbicidal effect on D (Chinese sprangletop), rating 0-5” value (Chinese sprangletop; 320 g/ha) was 5 (Herbicidal rate of 90% or more (almost completely withered)), the “effect on wild oat (I)” value (wild oat; [8]) was 3 (Herbicidal rate of 40% or more and less than 70%) and the “F: southern crabgrass, herbicidal effect rating” value (southern crabgrass; AAH 320 g/ha) was 0 (Herbicidal rate of 5% or less (almost no effect)). For the same molecule, the “J: blackgrass, herbicidal effect rating” value (blackgrass [3]) was 0 (Herbicidal rate of 5% or less (almost no effect)), the “N: redroot pigweed, herbicidal effect rating” value (redroot pigweed [4]; AAH 320 g/ha) was 4 (Herbicidal rate of 70% or more and less than 90%) and the “effect on velvetleaf (M)” value (velvetleaf; [8]) was 5 (Herbicidal rate of 90% or more (almost completely withered)). The “herbicidal effect rating, A: late watergrass” value (late watergrass) was 0 (Herbicidal rate of 5% or less (almost no effect)) and the “herbicidal effect on H (barnyard grass), rating 0-5” value (barnyard grass [5]; 320 g/ha) was 5 (Herbicidal rate of 90% or more (almost completely withered)).
For Cc1nn(C)c(=O)c(-c2c(-c3ccc(OC(F)F)cc3)sc3ccc(F)cc23)c1OC(=O)c1ccco1 [2-287], the “J: blackgrass, herbicidal effect (criteria 0-5)” value (blackgrass [1]; [9]) was 5 (Herbicidal rate of 90% or more (almost completely withered)), the “N: redroot pigweed, herbicidal effect (criteria 0-5)” value (redroot pigweed [6]) was 5 (Herbicidal rate of 90% or more (almost completely withered)) and the “H: barnyard grass, herbicidal effect (criteria 0-5)” value (barnyard grass [2]; [9]) was 5 (Herbicidal rate of 90% or more (almost completely withered)). For the same molecule, the “K: Italian ryegrass, herbicidal effect (criteria 0-5)” value (Italian ryegrass; [9]) was 5 (Herbicidal rate of 90% or more (almost completely withered)), the “R: persian speedwell, herbicidal effect (criteria 0-5)” value (persian speedwell; [9]) was 5 (Herbicidal rate of 90% or more (almost completely withered)) and the “herbicidal effect on P: chickweed” value (chickweed; [10]) was 4 (Herbicidal rate of 70% or more and less than 90%). The “herbicidal effect on O: lambsquarters” value (lambsquarters; [10]) was 5 (Herbicidal rate of 90% or more (almost completely withered)), the “herbicidal effect on D: Chinese sprangletop” value (Chinese sprangletop; [10]) was 3 (Herbicidal rate of 40% or more and less than 70%) and the “I: wild oat, herbicidal effect (criteria 0-5)” value (wild oat; [9]) was 3 (Herbicidal rate of 40% or more and less than 70%). For the same molecule, the “herbicidal effect on F: southern crabgrass” value (southern crabgrass; [10]) was 4 (Herbicidal rate of 70% or more and less than 90%), the “herbicidal effect on H: barnyard grass” value (barnyard grass [7]) was 5 (Herbicidal rate of 90% or more (almost completely withered)) and the “herbicidal effect on N: redroot pigweed” value (redroot pigweed [4]; [10]) was 5 (Herbicidal rate of 90% or more (almost completely withered)). The “M: velvetleaf, herbicidal effect (criteria 0-5)” value (velvetleaf; [9]) was 5 (Herbicidal rate of 90% or more (almost completely withered)), the “herbicidal effect rating, A: late watergrass” value (late watergrass) was 3 (Herbicidal rate of 40% or more and less than 70%) and the “herbicidal effect on H: barnyard grass” value (barnyard grass [5]; [10]) was 5 (Herbicidal rate of 90% or more (almost completely withered)).
